According to patent publication US20150328310A1, “METHODS AND COMPOSITIONS RELATING TO TREATMENT OF CANCER” (THE PENN STATE RESEARCH FOUNDATION, priority 2012, published 2015):
Like-named read-outs stand apart in the source and are kept apart here.

Experiments:
SW480 = assay: Cell viability assay of ISC-4 combined with approved antitumor agents, SW480; format: cell-based, human; set-up: key: uncooperative (−); cooperative (+); synergistic (*); ambiguous (?); details: ISC-4 (1, 2, or 4 μM) plus therapy at putative EC12.5, EC25, EC50; compared to monoagent activity
Experimental: (§1) Cell lines are obtained from ATCC and cultured in ATCC-recommended media in a humidified incubator at 5% CO2 and 37° C. For cell viability assays, cells are seeded into 96-well black-walled plates at a concentration of 1×10^5 cells per mL in fresh media and in a volume of 100 μL per well. Cells are allowed to adhere overnight and are treated the next day as indicated. At endpoint, CellTiter-Glo (Promega) assays are performed according to the manufacturer's protocol, and the bioluminescent readout is recorded on an IVIS imaging system (Xenogen).
(§2) The SW480 and RKO human colon cancer cell lines are used for initial profiling based on their heterogeneous oncogenic genetic alterations.
(§3) Combinatorial activities of ISC-4 and each listed drug are compared to monoagent activities of each drug alone by cell viability assays and determined to be uncooperative (−), cooperative (+), synergistic (*), or ambiguous (?).

RKO = assay: Cell viability assay of ISC-4 combined with approved antitumor agents, RKO; format: cell-based, human; set-up: key: uncooperative (−); cooperative (+); synergistic (*); ambiguous (?); details: ISC-4 (1, 2, or 4 μM) plus therapy at putative EC12.5, EC25, EC50; compared to monoagent activity
Experimental: as §1, §2, §3

[1] = tested on: SW480 and RKO colon cancer cell lines; details: estimated from the literature, dose used with ISC-4 in FIG. 2, cited from earlier work
[2] = Serum chemistry profiles of mice; format: in vivo; details: serum 2 days after last dose; ISC-4 3 mg/kg i.p., cetuximab 10 mg/kg i.v., twice a week for 2 weeks
Experimental: Athymic female nude mice (Charles River Laboratories) are inoculated with 1×10^6 of 5-FU-resistant RKO or HT-29 cells in each rear flank as a 200 μL suspension of 1:1 Matrigel (BD):PBS. Treatment is initiated once tumors reached a mean volume of […], intraperitoneal or intravenous injections are given at a total volume of 200 μL in DMSO. […] Tissue is paraffin-embedded and sectioned. H&E staining (Daiko) and TUNEL staining (Millipore) are carried out according to the manufacturer's protocols. For serum chemistry assays, 1 mL of blood is harvested from anesthetized mice by terminal cardiac puncture of the left ventricle. For serum chemistry, 500 μL is placed into a microfuge tube and allowed to clot for 30 minutes at room temperature followed by centrifugation. Serum is removed, centrifuged again to remove any additional debris prior to analysis.
Serum was collected 2 days following the last dose.

[3] = tested on: panel of human cancer cell lines; assay: Cell viability assay of ISC-4 in a panel of human cancer cell lines (72 hr); format: cell-based; details: human colon cancer cell lines with the exception of HT-29
Experimental: as §1, with “(Xenogen). For cell synchronization, cells are incubated with 200 ng/mL nocodazole for 16 hours prior to treatment. Chloroquine is obtained from Sigma. zVAD-fmk is obtained from Promega and used at a working concentration of 25 μM. ISC-4 is synthesized as described in Sharma, A. K., et al., J. of Med. Chem., 2008, 51(24):7820-7826.” for “(Xenogen).”
The in vitro activity of ISC-4 is tested in a panel of human cancer cell lines to characterize its spectrum of activity.
The isogenic HCT116 cell lines indicate that ISC-4 activity is likely p53- and Bax-independent.

[4] = tested on: human colon cancer cell lines; assay: Cell cycle / sub-G1 DNA content analysis after ISC-4 treatment; format: cell-based
Experimental: (§4) For sub-G1 DNA content analysis, cells are trypsinized at the indicated time points and fixed in 80% ethanol at 4° C. for a minimum of 30 minutes. Fixed cells are then stained with propidium iodide in the presence of RNase and analyzed on an Epics Elite flow cytometer (Beckman Coulter).
The effect of ISC-4 treatment on cell cycle profiles of synchronous and asynchronous HCT116 (FIG. 1B) and HT-29 (FIG. 1C) cell lines is shown. […] Thus, ISC-4 has modest single agent activity against human colon cancer cells by causing cell death and a decrease in proliferation.

RKO cells = assay: Sub-G1 content by flow cytometry, combination; format: cell-based, human; details: zVAD-fmk 25 μM
Experimental: as §4

| Compound | Combinatorial effect of ISC-4 with the listed therapy, SW480 (SW480) | Combinatorial effect of ISC-4 with the listed therapy, RKO (RKO) | EC12.5 [1] | EC25 [1] | EC50 ([1]; read-out: EC50) | other results |
| --- | --- | --- | --- | --- | --- | --- |
| CS(=O)(=O)CCNCc1ccc(-c2ccc3ncnc(Nc4ccc(OCc5cccc(F)c5)c(Cl)c4)c3c2)o1 [Lapatinib] | − | − | 1.75 µM | 3500 nM | 7 µM |  |
| CNC(=O)c1cc(Oc2ccc(NC(=O)Nc3ccc(Cl)c(C(F)(F)F)c3)cc2)ccn1 [Sorafenib] | + | + | 8 µM | 16000 nM | 32 µM |  |
| CC(C)C[C@H](NC(=O)[C@H](Cc1ccccc1)NC(=O)c1cnccn1)B(O)O [Bortezomib] | ? | + |  |  |  |  |
| Panitumumab | − | − | 0.75 µg/mL | 1.5 µg/mL |  | EC50 [1]: 3 µg/mL |
| COc1cccc2c1C(=O)c1c(O)c3c(c(O)c1C2=O)C[C@@](O)(C(=O)CO)C[C@@H]3O[C@H]1C[C@H](N)[C@H](O)[C@H](C)O1 [Doxorubicin] | − | ? | 16.25 µM | 32500 nM | 65 µM |  |
| O=C1[O][Pt]2([NH][C@@H]3CCCC[C@H]3[NH]2)[O]C1=O [Oxaliplatin] | − | − | 0.075 µM | 150 nM | 0.3 µM |  |
| CC(=O)O[C@@]12CO[C@@H]1C[C@H](O)[C@@]1(C)C(=O)[C@H](O)C3=C(C)[C@@H](OC(=O)[C@H](O)[C@@H](NC(=O)OC(C)(C)C)c4ccccc4)C[C@@](O)([C@@H](OC(=O)c4ccccc4)[C@H]21)C3(C)C [Docetaxel] | − | − | 2.5 µM | 5000 nM | 10 µM |  |
| COc1cc([C@@H]2c3cc4c(cc3[C@@H](O[C@@H]3O[C@@H]5CO[C@@H](C)O[C@H]5[C@H](O)[C@H]3O)[C@H]3COC(=O)[C@H]23)OCO4)cc(OC)c1O [Etoposide] | − | − | 1.25 µM | 2500 nM | 5 µM |  |
| CC[C@]1(O)C[C@H]2CN(CCc3c([nH]c4ccccc34)[C@@](C(=O)OC)(c3cc4c(cc3OC)N(C=O)[C@H]3[C@@](O)(C(=O)OC)[C@H](OC(C)=O)[C@]5(CC)C=CCN6CC[C@]43[C@@H]65)C2)C1 [Vincristine] | − | − | 3.5e-05 µM | .07 nM | 0.00014 µM |  |
| N.N.[Cl][Pt][Cl] [Cisplatin] | + | − | 1.125 µM | 2250 nM | 4.5 µM |  |
| COc1cc2ncnc(Nc3ccc(F)c(Cl)c3)c2cc1OCCCN1CCOCC1 [Gefitinib] | + | + | 5.75 µM | 11500 nM |  |  |
| [Se]=C=NCCCCc1ccccc1 [ISC-4] |  |  |  |  |  | ALT [2]: 29 ± 2 U/L; AST [2]: 221 ± 138 U/L; Alk. Phos. (alkaline phosphatase) [2]: 35 ± 10 U/L; BUN (blood urea nitrogen) [2]: 22 ± 1 mg/dL; Cl [2]: 107 ± 3 mmol/L; Creatinine [2]: 0.1 ± 0 mg/dL; Glucose [2]: 309 ± 8 mg/dL; K [2]: 4.8 ± .1 mmol/L; LDH (lactate dehydrogenase) [2]: 1074 ± 531 U/L; Na [2]: 155 ± 2 mmol/L; T. Bil (total bilirubin) [2]: 0.65 ± 0.07 mg/dL; Sensitivity to ISC-4 treatment [3]: moderately sensitive; Concentration at which ISC-4-induced sub-G1 content becomes apparent ([4]; colon cancer cell lines, 0, 1, 2, 4, 8, or 16 μM ISC-4, dose-dependent): > 8 µM; Sub-G1 content ([4]; synchronized HCT116 and HT-29 cells): modest increase in sub-G1 content; ISC-4-induced sub-G1 content on co-incubation with pan-caspase inhibitor zVAD-fmk (RKO cells): significantly inhibited |
| Nc1ccn([C@@H]2O[C@H](CO)[C@@H](O)C2(F)F)c(=O)n1 [Gemcitabine] | − | + | 0.5 µM | 1000 nM | 2 µM |  |
| O=c1[nH]cc(F)c(=O)[nH]1 [5-FU, 5-fluorouracil] | − | − | 4.5 µM | 9000 nM | 18 µM |  |
| Nc1nc(Cl)nc2c1ncn2[C@H]1C[C@H](O)[C@@H](CO)O1 [Cladribine] | − | − | 0.025 µM | 50 nM | 0.1 µM |  |
| Nc1nc2[nH]cc(CCc3ccc(C(=O)N[C@@H](CCC(=O)O)C(=O)O)cc3)c2c(=O)[nH]1 [Pemetrexed] | − | − | 0.25 µg/mL | 0.5 µg/mL |  | EC50 [1]: 1 µg/mL |
| CC(=O)O[C@H]1C(=O)[C@@]2(C)[C@H]([C@H](OC(=O)c3ccccc3)[C@]3(O)C[C@H](OC(=O)[C@H](O)[C@@H](NC(=O)c4ccccc4)c4ccccc4)C(C)=C1C3(C)C)[C@]1(OC(C)=O)CO[C@@H]1C[C@@H]2O [Paclitaxel] | − | − | 0.0025 µM | 5 nM | 0.01 µM |  |
| CCc1c2c(nc3ccc(OC(=O)N4CCC(N5CCCCC5)CC4)cc13)-c1cc3c(c(=O)n1C2)COC(=O)[C@]3(O)CC [Irinotecan] | − | − | 3.38 µM | 6750 nM | 13 µM |  |
